Test results: ChEMBL document CHEMBL3988442, “University of Dundee, Small-Polar-MMV Screening Library” (2021)
Several values for one entry are separate records, joined by “and”; a condition that tells them apart may be missing. Identical values can stand only once.

Legend:
[1] = molecular target: Chromo domain-containing protein 1 (Saccharomyces cerevisiae (strain ATCC 204508 / S288c) (Baker's yeast), UniProt P32657); experiment: ScCHD-1 Enzyme Inhibition Assay; type: functional
Tryptophan--tRNA ligase = Tryptophan--tRNA ligase (Mycobacterium tuberculosis (strain ATCC 25618 / H37Rv), UniProt P9WFT3); experiment: Biochemical assay for Mt-TrpRS; type: functional
[2] = molecular target: T1, Ubiquitin-activating enzyme e1, putative (Leishmania donovani (strain BPK282A1), UniProt E9BSI1); experiment: Leishmania donovani Ubiquitin Activating Enzyme (LdE1); type: functional
T1 sequence (E9BSI1 whole entry): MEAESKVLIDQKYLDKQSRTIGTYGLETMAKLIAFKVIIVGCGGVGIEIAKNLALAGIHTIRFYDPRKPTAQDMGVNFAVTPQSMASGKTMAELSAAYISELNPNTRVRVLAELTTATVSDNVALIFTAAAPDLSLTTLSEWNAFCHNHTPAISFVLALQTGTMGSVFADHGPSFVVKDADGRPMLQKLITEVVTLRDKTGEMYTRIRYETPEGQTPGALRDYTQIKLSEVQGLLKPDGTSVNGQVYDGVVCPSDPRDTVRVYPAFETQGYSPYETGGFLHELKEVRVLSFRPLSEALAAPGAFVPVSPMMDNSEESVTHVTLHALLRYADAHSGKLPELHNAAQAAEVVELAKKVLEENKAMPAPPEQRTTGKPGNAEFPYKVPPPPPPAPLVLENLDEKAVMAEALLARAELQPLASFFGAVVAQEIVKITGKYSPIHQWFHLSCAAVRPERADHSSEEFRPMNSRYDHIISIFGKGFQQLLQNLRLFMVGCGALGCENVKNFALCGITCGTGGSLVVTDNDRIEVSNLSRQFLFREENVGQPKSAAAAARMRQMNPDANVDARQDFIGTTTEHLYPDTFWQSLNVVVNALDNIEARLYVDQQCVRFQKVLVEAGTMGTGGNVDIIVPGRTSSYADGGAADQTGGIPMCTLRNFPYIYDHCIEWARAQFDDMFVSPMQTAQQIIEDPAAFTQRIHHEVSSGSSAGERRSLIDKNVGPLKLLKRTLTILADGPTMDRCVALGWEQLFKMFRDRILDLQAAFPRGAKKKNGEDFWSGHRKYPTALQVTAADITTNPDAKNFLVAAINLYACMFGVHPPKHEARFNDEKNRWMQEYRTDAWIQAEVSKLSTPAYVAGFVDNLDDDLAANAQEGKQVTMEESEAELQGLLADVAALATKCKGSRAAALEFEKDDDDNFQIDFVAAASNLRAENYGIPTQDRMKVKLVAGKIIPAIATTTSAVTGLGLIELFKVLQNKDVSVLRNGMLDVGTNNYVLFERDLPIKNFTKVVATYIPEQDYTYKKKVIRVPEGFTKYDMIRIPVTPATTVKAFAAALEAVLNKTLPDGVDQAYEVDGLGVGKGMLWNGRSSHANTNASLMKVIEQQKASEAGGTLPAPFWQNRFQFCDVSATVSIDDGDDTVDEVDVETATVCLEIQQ

Histidine--tRNA ligase = molecular target: T2, Histidine--tRNA ligase (Leishmania infantum, UniProt A4I591); experiment: Leishmania infantum Histidine tRNA synthetase (LdHisRS); type: functional
T2 sequence (A4I591 whole entry): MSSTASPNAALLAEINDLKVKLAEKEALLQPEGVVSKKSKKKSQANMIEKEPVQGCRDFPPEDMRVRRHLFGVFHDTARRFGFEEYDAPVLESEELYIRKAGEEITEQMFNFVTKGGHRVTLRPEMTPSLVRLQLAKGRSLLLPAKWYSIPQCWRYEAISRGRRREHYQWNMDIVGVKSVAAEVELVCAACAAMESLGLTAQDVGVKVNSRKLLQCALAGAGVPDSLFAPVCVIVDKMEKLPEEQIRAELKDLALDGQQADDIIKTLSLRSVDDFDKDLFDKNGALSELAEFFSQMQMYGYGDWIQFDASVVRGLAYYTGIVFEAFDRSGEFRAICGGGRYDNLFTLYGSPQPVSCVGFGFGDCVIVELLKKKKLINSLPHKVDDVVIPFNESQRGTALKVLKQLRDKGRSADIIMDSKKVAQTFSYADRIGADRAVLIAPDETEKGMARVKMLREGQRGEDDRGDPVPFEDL

Lysine--tRNA ligase = Lysine--tRNA ligase (Plasmodium falciparum (isolate 3D7), UniProt Q8IDJ8); experiment: Pf-KRS-1 (Lysyl-RNA Synthetase-1, KRS-1, cytosolic KRS) from Plasmodium falciparum. Inhibitor assay, 384 well plate, luminescence read.; type: functional
Plasmodium falciparum = experiment: Plasmodium falciparum sporozoite viability assay; type: functional, organism-based; conditions: Plasmodium falciparum

Lysine--tRNA ligase, sequence (Q8IDJ8 whole entry): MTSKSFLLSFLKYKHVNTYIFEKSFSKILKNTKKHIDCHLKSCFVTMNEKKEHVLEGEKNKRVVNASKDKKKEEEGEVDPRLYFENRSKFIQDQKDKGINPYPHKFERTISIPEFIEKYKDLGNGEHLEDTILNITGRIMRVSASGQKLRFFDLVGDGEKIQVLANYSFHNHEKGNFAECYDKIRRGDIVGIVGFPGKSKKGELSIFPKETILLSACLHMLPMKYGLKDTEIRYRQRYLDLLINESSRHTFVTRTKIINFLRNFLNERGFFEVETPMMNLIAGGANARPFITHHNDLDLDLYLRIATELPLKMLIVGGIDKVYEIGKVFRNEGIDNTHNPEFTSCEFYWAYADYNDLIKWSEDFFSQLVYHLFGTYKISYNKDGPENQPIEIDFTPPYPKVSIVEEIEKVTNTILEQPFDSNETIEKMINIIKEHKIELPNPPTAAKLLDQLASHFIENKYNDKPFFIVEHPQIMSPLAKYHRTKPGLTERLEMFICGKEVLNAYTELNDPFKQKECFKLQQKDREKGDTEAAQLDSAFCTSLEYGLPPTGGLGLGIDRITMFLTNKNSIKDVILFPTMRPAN
Chromo domain-containing protein 1, sequence (P32657 whole entry, the tested form may be a part): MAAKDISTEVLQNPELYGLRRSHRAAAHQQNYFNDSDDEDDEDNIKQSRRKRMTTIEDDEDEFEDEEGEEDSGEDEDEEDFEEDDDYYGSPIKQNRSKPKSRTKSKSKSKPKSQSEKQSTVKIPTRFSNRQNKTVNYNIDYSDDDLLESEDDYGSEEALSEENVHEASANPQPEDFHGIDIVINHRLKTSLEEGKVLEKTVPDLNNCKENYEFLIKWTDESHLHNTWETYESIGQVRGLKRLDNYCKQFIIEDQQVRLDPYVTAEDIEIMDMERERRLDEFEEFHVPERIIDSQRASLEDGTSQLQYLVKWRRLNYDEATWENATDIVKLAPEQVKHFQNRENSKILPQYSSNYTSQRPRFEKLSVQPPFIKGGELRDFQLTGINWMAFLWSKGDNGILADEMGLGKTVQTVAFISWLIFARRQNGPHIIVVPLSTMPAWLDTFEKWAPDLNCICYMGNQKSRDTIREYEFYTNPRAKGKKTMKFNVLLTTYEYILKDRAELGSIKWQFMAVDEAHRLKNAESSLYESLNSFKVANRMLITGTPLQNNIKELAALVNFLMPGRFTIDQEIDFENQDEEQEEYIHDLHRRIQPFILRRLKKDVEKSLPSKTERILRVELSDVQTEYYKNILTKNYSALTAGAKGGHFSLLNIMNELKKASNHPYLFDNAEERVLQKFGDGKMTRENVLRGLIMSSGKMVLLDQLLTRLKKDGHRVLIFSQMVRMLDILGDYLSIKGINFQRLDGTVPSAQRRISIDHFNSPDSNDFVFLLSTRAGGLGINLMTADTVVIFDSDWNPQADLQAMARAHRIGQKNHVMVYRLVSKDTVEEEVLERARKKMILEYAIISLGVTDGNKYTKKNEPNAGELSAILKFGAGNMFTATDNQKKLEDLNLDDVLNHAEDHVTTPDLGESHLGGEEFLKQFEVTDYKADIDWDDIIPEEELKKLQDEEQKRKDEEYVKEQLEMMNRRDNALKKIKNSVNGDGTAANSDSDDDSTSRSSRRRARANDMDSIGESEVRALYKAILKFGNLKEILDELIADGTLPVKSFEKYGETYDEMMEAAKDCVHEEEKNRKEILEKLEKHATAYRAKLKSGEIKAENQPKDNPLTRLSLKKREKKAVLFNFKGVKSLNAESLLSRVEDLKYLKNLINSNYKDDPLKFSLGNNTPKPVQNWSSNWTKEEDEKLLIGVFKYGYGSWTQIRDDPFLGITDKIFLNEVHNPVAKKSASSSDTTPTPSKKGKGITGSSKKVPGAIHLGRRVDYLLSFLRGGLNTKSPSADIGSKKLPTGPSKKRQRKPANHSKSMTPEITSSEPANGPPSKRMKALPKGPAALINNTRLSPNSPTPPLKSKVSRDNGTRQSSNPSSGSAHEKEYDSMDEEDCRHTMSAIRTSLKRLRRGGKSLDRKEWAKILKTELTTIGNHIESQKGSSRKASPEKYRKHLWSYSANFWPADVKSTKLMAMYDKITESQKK
Tryptophan--tRNA ligase, sequence (P9WFT3 whole entry): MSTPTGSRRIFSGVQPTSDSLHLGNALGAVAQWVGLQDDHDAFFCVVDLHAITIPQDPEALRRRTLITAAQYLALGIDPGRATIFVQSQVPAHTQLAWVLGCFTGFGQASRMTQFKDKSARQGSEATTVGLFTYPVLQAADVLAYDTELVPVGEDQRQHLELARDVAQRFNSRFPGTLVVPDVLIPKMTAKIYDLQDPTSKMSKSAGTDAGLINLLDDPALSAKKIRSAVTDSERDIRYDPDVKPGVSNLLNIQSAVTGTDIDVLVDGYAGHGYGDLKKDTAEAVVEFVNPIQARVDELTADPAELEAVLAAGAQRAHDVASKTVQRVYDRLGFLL

O=C1CSC(c2cccs2)c2cnn(C3CCCC3)c2N1 (configuration not stated)
IC50 [1]: > 29.5 µM

COc1ccc(C2=C(C)C(N3CCc4ccccc4C3)=NS2(=O)=O)cc1
IC50 [1]: 27.1 µM and 24 µM

COC(=O)N1CCc2ccc(NC(=O)c3cn(C)nn3)cc2C1
IC50 [1]: > 29.5 µM

O=C(Cn1c(=O)nc2n1C(=O)N(c1ccccc1)C2)Nc1ccccc1
IC50 [1]: > 29.5 µM

CC(C)(C)n1ncc2c1NC(=O)CC2c1ccccc1 (configuration not stated)
IC50 [1]: > 29.5 µM

O=C1CSC(c2ccsc2)c2sccc2N1 (configuration not stated)
IC50 [1]: > 29.5 µM

CN1CCN(c2ncc3c(=O)n(-c4cccc(F)c4)c(=O)[nH]c3n2)CC1
IC50 [1]: > 29.5 µM

CCc1ccc(-n2c(=O)[nH]c3nc(N4CCSCC4)ncc3c2=O)cc1
IC50 [1]: > 29.5 µM

O=C(O)c1nnn(-c2ccc(OC(F)(F)F)cc2)c1-c1ccncc1
IC50 [1]: > 29.5 µM

O=C(COc1coc(CN2CCCCCC2)cc1=O)c1ccccc1
IC50 [1]: > 29.5 µM

CC(=O)c1cccc(NC(=O)Cn2cc(I)cn2)c1
IC50 [1]: > 29.5 µM

CCc1ccc(NC(=O)N2C[C@H]3C[C@H](C(=O)NC)[C@@H](C2)O3)cc1
IC50 [1]: > 29.5 µM

Cn1ccnc1CN1CCC2(CC1)CN(CC1CC1)C(=O)CO2
IC50 [1]: > 29.5 µM

CCN(CC)CCNC(=O)c1cc(C(C)C)nc(N2CCCC2)n1
IC50 [1]: > 29.5 µM

Cc1nn(C)c(C)c1NC(=O)CCn1ncc2c(C)cccc21
IC50 [1]: > 29.5 µM

CCS(=O)(=O)Nc1ccn(Cc2cccc(Cl)c2)n1
IC50 [1]: > 29.5 µM

CCOc1ccc(N2CCCN=C2NC(=O)c2ccccc2C)cc1
IC50 [1]: > 29.5 µM

O=C(COCc1nc(-c2ccncc2)no1)N1CCCCCC1
IC50 [1]: > 29.5 µM

COCCNC(=O)C(C)n1cc(Br)cn1 (configuration not stated)
IC50 [1]: > 29.5 µM

CCn1nccc1CNC(=O)C1CC1
IC50 [1]: > 29.5 µM

CC(C)N1CCC(Cc2cncc(-c3cccc(C(=O)O)c3)n2)C1 (configuration not stated)
IC50 (Tryptophan--tRNA ligase): > 195 µM
IC50 [2]: > 100 µM

CCCN(C(=O)c1ccncc1)c1nc2c(s1)CCc1c-2cnn1C
IC50 (Histidine--tRNA ligase): 20.6 µM and 17 µM
IC50 (Lysine--tRNA ligase): > 50.1 µM
IC50 [2]: > 100 µM

COCCN(C(=O)c1ccccn1)c1nc2c(s1)CCc1c-2cnn1C
IC50 (Histidine--tRNA ligase): 9.13 µM and 10.9 µM
IC50 (Lysine--tRNA ligase): > 50.1 µM
IC50 (Plasmodium falciparum): 0.574 µM
IC50 [2]: > 100 µM

CCCN(C(=O)c1cnccn1)c1nc2c(s1)CCc1c-2cnn1C
IC50 (Histidine--tRNA ligase): 60.2 µM and 72.5 µM
IC50 [2]: > 100 µM

CCCN(C(=O)c1cnc(C)cn1)c1nc2c(s1)CCc1c-2cnn1C
IC50 (Histidine--tRNA ligase): 43.9 µM and 33.5 µM
IC50 (Lysine--tRNA ligase): > 50.1 µM
IC50 [2]: > 100 µM

COCCN(C(=O)c1cnccn1)c1nc2c(s1)CCc1c-2cnn1C
IC50 (Histidine--tRNA ligase): > 100 µM
IC50 [2]: > 100 µM

CCCN(C(=O)c1cccnc1)c1nc2c(s1)CCc1c-2cnn1C
IC50 (Histidine--tRNA ligase): 16.8 µM and 13.1 µM
IC50 (Lysine--tRNA ligase): > 50.1 µM
IC50 [2]: > 100 µM

COCc1nc2cc(NCc3nc(C)cs3)ccc2o1
IC50 (Histidine--tRNA ligase): 24.1 µM and 33.1 µM
IC50 (Lysine--tRNA ligase): > 50.1 µM
IC50 [2]: > 100 µM

COCc1nc2cc(NCc3sc(C)nc3C)ccc2o1
IC50 (Histidine--tRNA ligase): 15.1 µM and 19.3 µM
IC50 (Lysine--tRNA ligase): > 50.1 µM
IC50 [2]: > 100 µM

COCc1nc2cc(NCc3scnc3C)ccc2o1
IC50 (Histidine--tRNA ligase): 77.5 µM and 90.5 µM
IC50 [2]: > 100 µM

COCc1nc2cc(NCc3ccc(CO)o3)ccc2o1
IC50 (Histidine--tRNA ligase): 86.1 µM and > 100 µM
IC50 [2]: > 100 µM

COCc1nc2cc(NCc3cc[nH]n3)ccc2o1
IC50 (Histidine--tRNA ligase): > 100 µM
IC50 [2]: > 100 µM

COCc1nc2cc(NCc3ccc(C)o3)ccc2o1
IC50 (Histidine--tRNA ligase): 67.5 µM and 55.3 µM
IC50 (Lysine--tRNA ligase): > 50.1 µM
IC50 [2]: > 100 µM

COCCC(=O)N1CCc2cc(Cl)cc(Cl)c2C1
IC50 [1]: > 29.5 µM

CN(Cc1cccc(F)c1)C(=O)CN1CCCC1CCc1ccccc1 (configuration not stated)
IC50 [1]: > 29.5 µM

Cc1c(C(=O)NCC2CCCO2)nnn1-c1cccc2c1CCN(C)C2 (configuration not stated)
IC50 [1]: > 29.5 µM
